pIC50: −log10 of the molar value.
Experiments:
Hepatitis B virus [1] = experiment: Antiviral activity against HBV assessed as inhibition of viral early antigen secretion; format: functional, organism-based
Hepatitis B virus [2] = experiment: Antiviral activity against HBV assessed as inhibition of viral surface antigen secretion; format: functional, organism-based
[3] = Selectivity index, ratio of CC50 for human HepG2(2.2.15) cells to IC50 for HBV surface antigen secretion; format: functional
[4] = Selectivity index, ratio of CC50 for human HepG2(2.2.15) cells to IC50 for HBV early antigen secretion; format: functional
[5] = Cytotoxicity against human HepG2(2.2.15) cells; format: cell-based

| Compound | pIC50 (Hepatitis B virus [1]) | pIC50 (Hepatitis B virus [2]) | Ratio CC50/IC50 [3] | Ratio CC50/IC50 [4] | CC50 [5] [mM] |
| --- | --- | --- | --- | --- | --- |
| C=C(C)[C@H](OC(=O)COC(C)=O)[C@H](C[C@@H](C)[C@]12CC[C@@]3(C)[C@@]1(C[C@H](OC(=O)COC(C)=O)[C@H]1[C@@]4(C)CCC(=O)C(C)(C)[C@@H]4CC[C@@]13C)O2)OC(=O)COC(C)=O | < 2.80 | 4.29 | >31 | – | > 1.6 |
| C[C@H](C[C@H](OC(=O)CNC(=O)OC(C)(C)C)[C@@H](OC(=O)CNC(=O)OC(C)(C)C)C(C)(C)O)C1=C2C[C@H](OC(=O)CNC(=O)OC(C)(C)C)[C@H]3[C@@]4(C)CCC(=O)C(C)(C)[C@@H]4CC[C@]3(C)[C@@]2(C)CC1 | 4.03 | 3.49 | >4.7 | >16 | > 1.5 |
| C=C(C)[C@H](OC(=O)COC)[C@H](C[C@@H](C)[C@]12CC[C@@]3(C)[C@@]1(C[C@H](OC(=O)COC)[C@H]1[C@@]4(C)CCC(=O)C(C)(C)[C@@H]4CC[C@@]13C)O2)OC(=O)COC | < 2.89 | 4.36 | >29 | – | > 1.3 |
| COCC(=O)O[C@@H](C[C@@H](C)[C@]12CC[C@@]3(C)[C@@]1(C[C@H](OC(=O)COC)[C@H]1[C@@]4(C)CCC(=O)C(C)(C)[C@@H]4CC[C@@]13C)O2)[C@@H](OC(=O)COC)C(C)(C)O | < 2.96 | 3.05 | 1.2 | <1 | 1.1 |
| CC(=O)NCC(=O)O[C@@H](C[C@@H](C)C1=C2C[C@H](OC(=O)CNC(C)=O)[C@H]3[C@@]4(C)CCC(=O)C(C)(C)[C@@H]4CC[C@]3(C)[C@@]2(C)CC1)[C@@H](OC(=O)CNC(C)=O)C(C)(C)O | 3.06 | 3.54 | <1 | <1 | 0.27 |
| C=C(C)[C@H](OC(=O)COCC)[C@H](C[C@@H](C)[C@]12CC[C@@]3(C)[C@@]1(C[C@H](OC(=O)COCC)[C@H]1[C@@]4(C)CCC(=O)C(C)(C)[C@@H]4CC[C@@]13C)O2)OC(=O)COCC | < 2.74 | 4.70 | >90 | – | > 1.8 |
| CC(=O)OCC(=O)O[C@@H](C[C@@H](C)[C@]12CC[C@@]3(C)[C@@]1(C[C@H](OC(=O)COC(C)=O)[C@H]1[C@@]4(C)CCC(=O)C(C)(C)[C@@H]4CC[C@@]13C)O2)[C@@H](OC(=O)COC(C)=O)C(C)(C)O | < 3.60 | 3.92 | 2.1 | <1 | 0.25 |
| CCOCC(=O)O[C@@H](C[C@@H](C)[C@]12CC[C@@]3(C)[C@@]1(C[C@H](OC(=O)COCC)[C@H]1[C@@]4(C)CCC(=O)C(C)(C)[C@@H]4CC[C@@]13C)O2)[C@@H](OC(=O)COCC)C(C)(C)OC(=O)COCC | 3.49 | 3.60 | >5.6 | >4.4 | > 1.4 |
| C[C@H](C[C@H](OC(=O)c1ccc(Br)cc1)[C@@H](OC(=O)c1ccc(Br)cc1)C(C)(C)O)C1=C2C[C@H](OC(=O)c3ccc(Br)cc3)[C@H]3[C@@]4(C)CCC(=O)C(C)(C)[C@@H]4CC[C@]3(C)[C@@]2(C)CC1 | < 3.19 | < 3.19 | <1 | <1 | 0.65 |
| C[C@H](C[C@H](OC(=O)CN1C(=O)c2ccccc2C1=O)[C@@H](OC(=O)CN1C(=O)c2ccccc2C1=O)C(C)(C)O)C1=C2C[C@H](OC(=O)CN3C(=O)c4ccccc4C3=O)[C@H]3[C@@]4(C)CCC(=O)C(C)(C)[C@@H]4CC[C@]3(C)[C@@]2(C)CC1 | 3.85 | 2.92 | >1.2 | >11 | > 1.5 |
| Nc1ccn([C@@H]2CS[C@H](CO)O2)c(=O)n1 [LAMIVUDINE] | 1.42 | 1.74 | 1.7 | 0.82 | 31 |

Second part, led by results:

| pIC50 (Hepatitis B virus [1]) | pIC50 (Hepatitis B virus [2]) | Compound | Ratio CC50/IC50 [3] | Ratio CC50/IC50 [4] | CC50 [5] [mM] |
| --- | --- | --- | --- | --- | --- |
| < 3.60 | 3.89 | CCOCC(=O)O[C@@H](C[C@@H](C)[C@]12CC[C@@]3(C)[C@@]1(C[C@H](OC(=O)COCC)[C@H]1[C@@]4(C)CCC(=O)C(C)(C)[C@@H]4CC[C@@]13C)O2)[C@@H](OC(=O)COCC)C(C)(C)O | 1.9 | <1 | 0.25 |
| 3.59 | 3.70 | CCOCC(=O)O[C@@H](C[C@@H](C)C1=C2C[C@H](OC(=O)COCC)[C@H]3[C@@]4(C)CCC(=O)C(C)(C)[C@@H]4CC[C@]3(C)[C@@]2(C)CC1)[C@@H](OC(=O)COCC)C(C)(C)OC(=O)COCC | >11 | >8.7 | > 2.3 |
| 4.57 | 4.55 | COCC(=O)O[C@@H](C[C@@H](C)C1=C2C[C@H](OC(=O)COC)[C@H]3[C@@]4(C)CCC(=O)C(C)(C)[C@@H]4CC[C@]3(C)[C@@]2(C)CC1)[C@@H](OC(=O)COC)C(C)(C)OC(=O)COC | >90 | >93 | > 2.5 |
| 3.92 | 4.17 | C=C(C)[C@H](OC(=O)COC)[C@H](C[C@@H](C)C1=C2C[C@H](OC(=O)COC)[C@H]3[C@@]4(C)CCC(=O)C(C)(C)[C@@H]4CC[C@]3(C)[C@@]2(C)CC1)OC(=O)COC | >42 | >24 | > 2.8 |
| 4.52 | 4.70 | C=C(C)[C@H](OC(=O)COCC)[C@H](C[C@@H](C)C1=C2C[C@H](OC(=O)COCC)[C@H]3[C@@]4(C)CCC(=O)C(C)(C)[C@@H]4CC[C@]3(C)[C@@]2(C)CC1)OC(=O)COCC | >60 | >40 | > 1.2 |
| 2.70 | 3.40 | CCOCC(=O)O[C@@H](C[C@@H](C)C1=C2C[C@H](OC(=O)COCC)[C@H]3[C@@]4(C)CCC(=O)C(C)(C)[C@@H]4CC[C@]3(C)[C@@]2(C)CC1)[C@@H](OC(=O)COCC)C(C)(C)O | >6.5 | >1.3 | > 2.6 |
| < 4.29 | > 4.42 | CC(=O)OCC(=O)O[C@@H](C[C@@H](C)C1=C2C[C@H](OC(=O)COC(C)=O)[C@H]3[C@@]4(C)CCC(=O)C(C)(C)[C@@H]4CC[C@]3(C)[C@@]2(C)CC1)[C@@H](OC(=O)COC(C)=O)C(C)(C)O | >1.3 | <1 | 0.051 |

Reference: ChEMBL document CHEMBL1153983, “Anti-HBV agents. Part 2: synthesis and in vitro anti-hepatitis B virus activities of alisol A derivatives” (Bioorg Med Chem Lett, 2009)
